# Data published in ChEMBL document CHEMBL1136181, “Differentially functionalized diamines as novel ligands for the NPY2 receptor” (Bioorg Med Chem Lett, 2003).
# pIC50: −log10 of the molar value.
# Target: T1, Neuropeptide Y receptor type 2 (Homo sapiens, UniProt P49146)
# T1 sequence (P49146 whole entry): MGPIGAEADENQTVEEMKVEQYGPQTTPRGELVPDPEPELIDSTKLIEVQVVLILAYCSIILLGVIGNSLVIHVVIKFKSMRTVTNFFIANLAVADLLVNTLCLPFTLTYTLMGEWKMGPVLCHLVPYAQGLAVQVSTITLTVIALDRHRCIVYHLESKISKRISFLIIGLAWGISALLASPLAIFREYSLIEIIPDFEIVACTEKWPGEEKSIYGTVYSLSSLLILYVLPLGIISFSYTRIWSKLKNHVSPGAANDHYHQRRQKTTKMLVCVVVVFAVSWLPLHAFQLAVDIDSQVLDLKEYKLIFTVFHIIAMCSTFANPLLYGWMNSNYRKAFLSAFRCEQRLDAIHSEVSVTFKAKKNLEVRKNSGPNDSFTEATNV
# Test: Binding affinity against SMS-KAN cell membranes endogenously expressing Neuropeptide Y receptor type 2 using [125I]PYY as radioligand
row,pIC50,Compound
1,< 5.00,CNCCCN(C(=O)c1cc2ccccc2s1)c1ccccc1SCc1ccccc1
2,< 5.00,CN(C)CCN(C(=O)c1cc2ccccc2s1)c1ccccc1SCc1ccccc1
3,< 5.00,CN(C)CCCCN(C(=O)c1cc2ccccc2s1)c1ccccc1SCc1ccccc1
4,< 5.00,CN(C)CCCN(C(=O)c1cc2ccccc2s1)c1ccccc1Cc1ccccc1

# More lines, now with the values behind:
row,Compound,pIC50
1,CN(C)CCCN(C(=O)c1cc2ccccc2s1)c1ccccc1-c1ccccc1,< 5.00
2,CN(C)CCCN(C(=O)c1sc2ccccc2c1Cl)c1ccccc1SCc1ccccc1,< 5.00
3,CN(C)CCCN(C(=O)/C=C/c1ccccc1)c1ccccc1SCc1ccccc1,5.00
4,CC(C(=O)N(CCCN(C)C)c1ccccc1SCc1ccccc1)c1ccccc1 (stereo not drawn),6.00
5,CN(C)CCCN(C(=O)c1cc2ccccc2s1)c1ccccc1NC(=O)c1ccccc1,< 5.00
6,CN(C)CCCN(C(=O)[C@@H]1C[C@H]1c1ccccc1)c1ccccc1SCc1ccccc1,5.43
7,CN(C)CCCN(C(=O)c1cc2ccccc2o1)c1ccccc1SCc1ccccc1,< 5.00
8,CCCCc1ccccc1N(CCCN(C)C)C(=O)c1cc2ccccc2s1,5.66
9,CN(C)CCCN(C(=O)c1cc2ccccc2s1)c1ccccc1CCc1ccccc1,< 5.00
